Measurements: paper PMC9851200, “Multiparameter phenotypic screening for endogenous TFEB and TFE3 translocation identifies novel chemical series modulating lysosome function” (Autophagy, 2022)
Like-named read-outs stand apart in the source and are kept apart here.

What was measured:
[1] = tested on: endogenous TFEB; test: TFEB nuclear translocation, immunocytochemistry high-content imaging; format: cell-based
[2] = tested on: endogenous TFE3; test: TFE3 nuclear translocation, immunocytochemistry high-content imaging; format: cell-based
[3] = tested on: SH-SY5Y cells; test: AK (adenylate kinase) release ToxiLight cytotoxicity assay; further: reference of the scale not given here
[4] = tested on: SH-SY5Y cells; test: Nuclear count from microscopy images (cellular growth and toxicity); further: reference of the scale not given here
[5] = tested on: SH-SY5Y cells; further: reference of the scale not given here
[6] = PKIS2 primary screening, DQ Red BSA intensity
[7] = PKIS2 primary screening, DQ Red BSA spot count

| SMILES | TFEB % ([1]; PKIS2 primary screening) [%] | TFE3 % ([2]; PKIS2 primary screening) [%] | AK ([3]; PKIS2 primary screening) | Nuclear Count ([4]; PKIS2 primary screening) | DQ Intensity ([5]; PKIS2 primary screening) | DQ Spot ([5]; PKIS2 primary screening) | DQ Intensity [5, 6] | DQ Spot [5, 7] | TFEB % ([1]; PKIS2 primary screen) [%] | TFE3 % ([2]; PKIS2 primary screen) [%] | AK ([3]; PKIS2 primary screen) | Nuclear Count ([4]; PKIS2 primary screen) | DQ Intensity ([5]; PKIS2 primary screen, DQ Red BSA intensity) | DQ Spot ([5]; PKIS2 primary screen, DQ Red BSA spot count) |
| --- | --- | --- | --- | --- | --- | --- | --- | --- | --- | --- | --- | --- | --- | --- |
| COc1cc2ncn(-c3cc(OCCCc4ccccc4)c(C(N)=O)s3)c2cc1OC [UNC10225450A] | 3.13 | 11.96 | 94.56 | 118.22 | 116.92 | 123.73 | – | – | – | – | – | – | – | – |
| O=C(O)C(F)(F)F.O=c1[nH]ccc2nc(N[C@@H]3CCNC3)nc(Nc3ccc4c(c3)S(=O)(=O)CC4)c12 [UNC10225451A] | 7.05 | 16.36 | 185.61 | 98.38 | 83.68 | 100.25 | – | – | – | – | – | – | – | – |
| CN(C)CCNS(=O)(=O)c1ccc(-c2ccnc3[nH]ccc23)cc1 [UNC10225452A] | 4.89 | 16.94 | 114.11 | 78.72 | – | – | 125.57 | 113.31 | – | – | – | – | – | – |
| COc1cccc(-n2cnc3c(N)ncnc32)c1 [UNC10225454A] | 7.17 | 8.30 | 83.60 | 128.34 | 95.23 | 104.69 | – | – | – | – | – | – | – | – |
| CCN(CC)CCOc1ccc(Nc2ncc3cc(-c4c(Cl)cccc4Cl)c(=O)n(C)c3n2)cc1 [UNC10225459A] | – | – | – | – | – | – | – | – | 22.54 | 18.27 | 131.29 | 26.96 | 115.72 | 64.83 |
| CCn1c(-c2nonc2N)nc2c(C#CC(C)(C)O)nc(OCCN)cc21.Cl.Cl [UNC10225460A] | 9.06 | 15.40 | 78.09 | 55.94 | 74.51 | 103.98 | – | – | – | – | – | – | – | – |
| O=S(=O)(c1ccc(-c2ccnc3[nH]ccc23)cc1)N1CCCC1 [UNC10225462A] | 5.43 | 10.23 | 140.08 | 103.12 | – | – | 72.77 | 93.44 | – | – | – | – | – | – |
| Cl.Cl.c1ccc(-c2cc3ccncc3cc2OC2CCNCC2)cc1 [UNC10225463A] | 5.07 | 49.72 | 97.09 | 112.69 | 117.87 | 77.04 | – | – | – | – | – | – | – | – |
| Cl.Cl.NCC(NC(=O)c1cc(-c2ccccc2)c(-c2ccnc3[nH]ccc23)s1)c1ccccc1 (stereo not drawn) [UNC10225466A] | 5.04 | 18.77 | 133.16 | 129.43 | – | – | 104.29 | 96.16 | – | – | – | – | – | – |
| Cl.Cl.NCC(NCc1ccc(-c2ccnc3[nH]ccc23)s1)c1ccccc1 (stereo not drawn) [UNC10225471A] | 4.03 | 13.41 | 98.53 | 123.37 | – | – | 100.58 | 94.95 | – | – | – | – | – | – |
| CN(C(=O)c1ccc(-c2cc(-c3c[nH]nc3-c3ccccn3)ccn2)cc1)C1CCOCC1 [UNC10225473A] | 8.39 | 13.07 | 101.87 | 84.56 | – | – | 126.52 | 117.08 | – | – | – | – | – | – |
| CCn1c(-c2ccoc2)nc2cnccc21 [UNC10225474A] | 2.97 | 9.12 | 125.64 | 101.97 | 148.88 | 113.44 | – | – | – | – | – | – | – | – |
| COc1ccc(NC(=O)c2ccc(-c3cc(-c4nnc(C)o4)ccc3C)cc2)cc1 [UNC10225475A] | 3.99 | 13.72 | 97.70 | 99.11 | 95.33 | 98.26 | – | – | – | – | – | – | – | – |
| Cn1cc(-c2ccc3c(c2)CCN3C(=O)Cc2cc(F)cc(C(F)(F)F)c2)c2c(N)ncnc21 [UNC10225478A] | 5.80 | 18.35 | 72.42 | 95.63 | 103.20 | 103.08 | – | – | – | – | – | – | – | – |
